US9498546B2, “Synthesis and application of novel imaging agents conjugated to DPA 713 analogs for imaging inflammation” (THE JOHNS HOPKINS UNIVERSITY, priority 2012, dated 2016)

System: LPS-stimulated J774 macrophages (TSPO)
Experiment: In vitro J774 murine macrophage uptake studies (fluorescence microscopy, with or without blocking)
Format: cell-based
Details: 40 nM probe, 1 hour of incubation
Procedure: FIG. 4 is a series of photomicrographs (A-I) of J774 macrophages that were cultured in 8 well chamber slides to 80% confluence. LPS was then added to each well for 24 hours to stimulate the cells. […] The cells were returned to the incubator for either 1 hour or 24 hours. The solutions were then removed, the nuclei were labeled with Hoechst 33342 and the cells were briefly washed before mounting and viewing under a fluorescence microscope.
In vitro J774 murine macrophage uptake studies. The immortalized J774 murine macrophage-like cell line was cultured in RPMI1640+20% FBS+1% penicillin+ streptomycin media in 8-well chamber slides (Fisher Scientific) to approximately 80% confluence. The cells were then stimulated with 1 ng/mL of LPS (Sigma, E. coli 055:B5) for 24 hours prior to addition of the probes of the present invention to 40 nM final concentration. […] The cells were exposed to the fluorescent probes and blocking compounds for either 1 hour or 24 hours prior to exposing to 1 ng/mL of Hoechst 33342 dye (Invitrogen), followed by washing twice briefly with PBS, pH 7.5. The chambers were then removed and the slide mounted with Dako Cytomation aqueous mounting media and a glass coverslip. The cells were visualized using a Nikon 80i upright epifluorescence microscope equipped with a Nikon DS-QilMc darkfield CCD camera and processed using Nikon Image Software on an adjacent workstation. The dyes were excited using either a Nikon Intensilight C-HGFI lamp (IRDye680 and Hoechst) or a Sutter Instruments Co. (Novato, Calif.) LB/LB-30 xenon lamp (IRDye800).
J774 Cell Uptake Studies. J774 macrophages were cultured in 8 well chamber slides to 80% confluence. LPS was then added to each well for 24 hours to stimulate the cells. […] The cells were returned to the incubator for either 1 hour or 24 hours. The solutions were then removed, the nuclei were labeled with Hoechst 33342 and the cells were briefly washed before mounting and viewing under a fluorescence microscope. […] The tracer localization for both analogs is perinuclear and granular in appearance and is consistent with the gross distribution pattern of TSPO expression in other mononuclear cell-derived lines.

## CCN(CC)C(=O)Cc1c(-c2ccc(OCCNC(=O)CCCCC[N+]3=C(/C=C/C4=C(Oc5ccc(S(=O)(=O)O)cc5)C(=C/C=C5/N(CCCCS(=O)(=O)O)c6ccc(S(=O)(=O)O)cc6C5(C)C)/CCC4)C(C)(C)c4cc(S(=O)(=O)[O-])ccc43)cc2)nn2c(C)cc(C)nc12 [DPA-713-IRDye800CW, 1-(6-(2-(4-(3-(2-(diethylamino)-2-oxoethyl)-5,7-dimethylpyrazolo[1,5-a]pyrimidin-2-yl)phenoxy)ethylamino)-6-oxohexyl)-2-((E)-2-((E)-3-((E)-2-(3,3-dimethyl-5-sulfo-1-(4-sulfobutyl)indolin-2-ylidene)ethylidene)-2-(4-sulfophenoxyl)cyclohex-1-enyl)vinyl)-3,3-dimethyl-3H-indolium-5-sulfonate]
  Observable fluorescence signal (uptake): almost no observable signal
